Tests used:
HCC827/GR cells = assay: Cell viability assay (CellTiter-Glo 2.0), gefitinib-resistant HCC827/GR cells; format: cell-based, human; details: Homo sapiens, HCC827; Table 4; 72 h drug treatment, combinations of EGFR TKIs and inhibitor of Formula (I); read-out: Relative cell viability; IC50 HCC827GR
From the text: (§1) To explore c-MET and AXL mechanisms of EGFR TKI resistance, resistant cells of the EGFR TKI hypersensitive EGFR exon 19 mutant NSCLC cell line, HCC827 and PC9 were generated by exposing these cells to increasing concentrations of EGFR TKI for over 3 months.
The human cell line HCC827 was purchased from the American Type Culture Collection (Manassas, VA), and the PC9 cell line was obtained from RIKEN Cell Bank (Ibaraki, Japan). […] Gefitinib-resistant cells were referred to as HCC827/GR. […] Osimertinib-resistant cells were referred to as HCC827/OR.
(§2) Cell viability assays were carried out by plating 1,000 cells per well of HCC827 or PC9 resistant cells, respectively, into white transparent-bottom 384-well plates. The cells were treated with each TKI across a 10-dose range from 1 nM to 10,000 nM. After 72 h of drug treatment, cell viability was measured using the CellTiter-Glo 2.0 assay (Promega, Madison, WI).
as §2

HCC827/ER cells = assay: Cell viability assay (CellTiter-Glo 2.0), erlotinib-resistant HCC827/ER cells; format: cell-based, human; details: Homo sapiens, HCC827ER, Table 4, 72 h drug treatment, combinations of EGFR TKIs and inhibitor of Formula (I), read-out: Relative cell viability
From the text: as §1
(§3) Gefitinib-resistant cells were referred to as HCC827/GR. […] Osimertinib-resistant cells were referred to as HCC827/OR.

HCC827/OR cells = assay: Cell viability assay (CellTiter-Glo 2.0), osimertinib-resistant HCC827/OR cells; format: cell-based, human; details: Homo sapiens, HCC827; Table 4; 72 h drug treatment, combinations of EGFR TKIs and inhibitor of Formula (I); read-out: Relative cell viability; IC50 HCC827OR
From the text: as §1, §3

PC9/ER cells = assay: Cell viability assay (CellTiter-Glo 2.0), erlotinib-resistant PC9/ER cells; format: cell-based; details: Homo sapiens, PC-9/ER; Table 4; 72 h drug treatment, combinations of EGFR TKIs and inhibitor of Formula (I); read-out: Relative cell viability; IC50 PC9ER
From the text: as §1, §3

Row | SMILES | IC50 (HCC827/GR cells) | IC50 (HCC827/ER cells) | IC50 (HCC827/OR cells) | IC50 (PC9/ER cells)
1 | Cc1nc(Cn2cc(C(=O)Nc3ccc(Oc4ccnc(N)c4C#CC(C)(C)N4CCNCC4)c(F)c3)c(=O)n(-c3ccc(F)cc3)c2=O)cs1 [Example 41, N-(4-((2-amino-3-(3-methyl-3-(piperazin-1-yl)but-1-yn-1-yl)pyridin-4-yl)oxy)-3-fluorophenyl)-3-(4-fluorophenyl)-1-((2-methylthiazol-4-yl)methyl)-2,4-dioxo-1,2,3,4-tetrahydropyrimidine-5-carboxamide] | < 1000 nM | < 1000 nM | < 1000 nM | < 1000 nM
2 | CN1CCC(CC#Cc2c(Oc3ccc(NC(=O)c4nn(C)c(=O)n(-c5ccc(F)cc5)c4=O)cc3F)ccnc2N)CC1 [Example 45, N-(4-((2-amino-3-(3-(1-methylpiperidin-4-yl)prop-1-yn-1-yl)pyridin-4-yl)oxy)-3-fluorophenyl)-4-(4-fluorophenyl)-2-methyl-3,5-dioxo-2,3,4,5-tetrahydro-1,2,4-triazine-6-carboxamide] | < 1000 nM | < 1000 nM | < 10000 nM | < 1000 nM
3 | Cn1nc(C(=O)Nc2ccc(Oc3ccnc(N)c3C#CCC3CCNCC3)c(F)c2)c(=O)n(-c2ccc(F)cc2)c1=O [Example 46, N-(4-((2-amino-3-(3-(piperidin-4-yl)prop-1-yn-1-yl)pyridin-4-yl)oxy)-3-fluorophenyl)-4-(4-fluorophenyl)-2-methyl-3,5-dioxo-2,3,4,5-tetrahydro-1,2,4-triazine-6-carboxamide] | < 1000 nM | < 10000 nM | < 10000 nM | < 10000 nM
4 | Cn1nc(C(=O)Nc2ccc(Oc3ccnc(N)c3C#CC(C)(C)N3CCNCC3)c(F)c2)c(=O)n(-c2ccc(F)cc2)c1=O [Example 47, N-(4-(2-amino-3-(3-methyl-3-(piperazin-1-yl)but-1-ynyl)pyridin-4-yloxy)-3-fluorophenyl)-4-(4-fluorophenyl)-2-methyl-3,5-dioxo-2,3,4,5-tetrahydro-1,2,4-triazine-6-carboxamide] | < 10000 nM | < 10000 nM | < 10000 nM | < 10000 nM
5 | Cn1nc(C(=O)Nc2ccc(Oc3ccnc(N)c3C#CC(C)(C)N3CCOCC3)c(F)c2)c(=O)n(-c2ccc(F)cc2)c1=O [Example 48, N-(4-(2-amino-3-(3-methyl-3-morpholinobut-1-ynyl)pyridin-4-yloxy)-3-fluorophenyl)-4-(4-fluorophenyl)-2-methyl-3,5-dioxo-2,3,4,5-tetrahydro-1,2,4-triazine-6-carboxamide] | < 1000 nM | < 1000 nM | < 1000 nM | < 1000 nM
6 | Cn1nc(C(=O)Nc2ccc(Oc3ccnc(N)c3C#CCN3CCOCC3)c(F)c2)c(=O)n(-c2ccc(F)cc2)c1=O [Example 49, N-(4-(2-amino-3-(3-morpholinoprop-1-ynyl)pyridin-4-yloxy)-3-fluorophenyl)-4-(4-fluorophenyl)-2-methyl-3,5-dioxo-2,3,4,5-tetrahydro-1,2,4-triazine-6-carboxamide] | < 1000 nM | < 10000 nM | < 10000 nM | < 1000 nM
7 | CC(C)(C#Cc1c(Oc2ccc(NC(=O)c3c[nH]c(=O)n(-c4ccc(F)cc4)c3=O)cc2F)ccnc1N)N1CCOCC1 [Example 50, N-(4-(2-amino-3-(3-methyl-3-morpholinobut-1-ynyl)pyridin-4-yloxy)-3-fluorophenyl)-3-(4-fluorophenyl)-2,4-dioxo-1,2,3,4-tetrahydropyrimidine-5-carboxamide] | < 1000 nM | < 100 nM | < 100 nM | < 100 nM
8 | Nc1nccc(Oc2ccc(NC(=O)c3c[nH]c(=O)n(-c4ccc(F)cc4)c3=O)cc2F)c1C#CCN1CCOCC1 [Example 51, N-(4-(2-amino-3-(3-morpholinoprop-1-ynyl)pyridin-4-yloxy)-3-fluorophenyl)-3-(4-fluorophenyl)-2,4-dioxo-1,2,3,4-tetrahydropyrimidine-5-carboxamide] | < 10000 nM | < 1000 nM | < 1000 nM | < 1000 nM
9 | CC(C)(C#Cc1c(Oc2ccc(NC(=O)c3c[nH]c(=O)n(-c4ccc(F)cc4)c3=O)cc2F)ccnc1N)N1CCNCC1 [Example 52, N-(4-(2-amino-3-(3-methyl-3-(piperazin-1-yl)but-1-ynyl)pyridin-4-yloxy)-3-fluorophenyl)-3-(4-fluorophenyl)-2,4-dioxo-1,2,3,4-tetrahydropyrimidine-5-carboxamide] | < 10000 nM | < 10000 nM | > 10000 nM | < 10000 nM
10 | Nc1nccc(Oc2ccc(NC(=O)c3c[nH]c(=O)n(-c4ccc(F)cc4)c3=O)cc2F)c1C#CCC1CCNCC1 [Example 53, N-(4-(2-amino-3-(3-(piperidin-4-yl)prop-1-ynyl)pyridin-4-yloxy)-3-fluorophenyl)-3-(4-fluorophenyl)-2,4-dioxo-1,2,3,4-tetrahydropyrimidine-5-carboxamide] | < 10000 nM | < 1000 nM | < 10000 nM | < 10000 nM
11 | CN1CCC(CC#Cc2c(Oc3ccc(NC(=O)c4c[nH]c(=O)n(-c5ccc(F)cc5)c4=O)cc3F)ccnc2N)CC1 [Example 54, N-(4-(2-amino-3-(3-(1-methylpiperidin-4-yl)prop-1-ynyl)pyridin-4-yloxy)-3-fluorophenyl)-3-(4-fluorophenyl)-2,4-dioxo-1,2,3,4-tetrahydropyrimidine-5-carboxamide] | < 1000 nM | < 1000 nM | < 1000 nM | < 1000 nM

Results, then the compound that gave them:

Row | IC50 (HCC827/GR cells) | IC50 (HCC827/ER cells) | IC50 (HCC827/OR cells) | IC50 (PC9/ER cells) | SMILES
12 | < 100 nM | < 100 nM | < 1000 nM | < 1000 nM | Cc1nc(Cn2cc(C(=O)Nc3ccc(Oc4ccnc(N)c4C#CC(C)(C)N4CCN(C)CC4)c(F)c3)c(=O)n(-c3ccc(F)cc3)c2=O)cs1 [Example 42, N-(4-((2-amino-3-(3-methyl-3-(4-methylpiperazin-1-yl)but-1-yn-1-yl)pyridin-4-yl)oxy)-3-fluorophenyl)-3-(4-fluorophenyl)-1-((2-methylthiazol-4-yl)methyl)-2,4-dioxo-1,2,3,4-tetrahydropyrimidine-5-carboxamide]
13 | < 100 nM | < 100 nM | < 1000 nM | < 100 nM | Cc1nc(Cn2cc(C(=O)Nc3ccc(Oc4ccnc(N)c4C#CCC4CCN(C)CC4)c(F)c3)c(=O)n(-c3ccc(F)cc3)c2=O)cs1 [Example 43, N-(4-((2-amino-3-(3-(1-methylpiperidin-4-yl)prop-1-yn-1-yl)pyridin-4-yl)oxy)-3-fluorophenyl)-3-(4-fluorophenyl)-1-((2-methylthiazol-4-yl)methyl)-2,4-dioxo-1,2,3,4-tetrahydropyrimidine-5-carboxamide]
14 | < 100 nM | < 1000 nM | < 1000 nM | < 1000 nM | Cc1nc(Cn2cc(C(=O)Nc3ccc(Oc4ccnc(N)c4C#CCC4CCNCC4)c(F)c3)c(=O)n(-c3ccc(F)cc3)c2=O)cs1 [Example 44, N-(4-((2-amino-3-(3-(piperidin-4-yl)prop-1-yn-1-yl)pyridin-4-yl)oxy)-3-fluorophenyl)-3-(4-fluorophenyl)-1-((2-methylthiazol-4-yl)methyl)-2,4-dioxo-1,2,3,4-tetrahydropyrimidine-5-carboxamide]
15 | < 100 nM | < 100 nM | < 1000 nM | < 1000 nM | CC(C)(C#Cc1c(Oc2ccc(NC(=O)c3cn(C4CCOCC4)c(=O)n(-c4ccc(F)cc4)c3=O)cc2F)ccnc1N)N1CCOCC1 [Example 55, N-(4-(2-amino-3-(3-methyl-3-morpholinobut-1-ynyl)pyridin-4-yloxy)-3-fluorophenyl)-3-(4-fluorophenyl)-2,4-dioxo-1-(tetrahydro-2H-pyran-4-yl)-1,2,3,4-tetrahydropyrimidine-5-carboxamide]
16 | < 100 nM | < 10 nM | < 1000 nM | < 1000 nM | Nc1nccc(Oc2ccc(NC(=O)c3cn(C4CCOCC4)c(=O)n(-c4ccc(F)cc4)c3=O)cc2F)c1C#CCN1CCOCC1 [Example 56, N-(4-(2-amino-3-(3-morpholinoprop-1-ynyl)pyridin-4-yloxy)-3-fluorophenyl)-3-(4-fluorophenyl)-2,4-dioxo-1-(tetrahydro-2H-pyran-4-yl)-1,2,3,4-tetrahydropyrimidine-5-carboxamide]
17 | < 100 nM | < 100 nM | < 1000 nM | < 1000 nM | CN1CCN(C(C)(C)C#Cc2c(Oc3ccc(NC(=O)c4cn(C5CCOCC5)c(=O)n(-c5ccc(F)cc5)c4=O)cc3F)ccnc2N)CC1 [Example 57, N-(4-(2-amino-3-(3-methyl-3-(4-methylpiperazin-1-yl)but-1-ynyl)pyridin-4-yloxy)-3-fluorophenyl)-3-(4-fluorophenyl)-2,4-dioxo-1-(tetrahydro-2H-pyran-4-yl)-1,2,3,4-tetrahydropyrimidine-5-carboxamide]

— patent US12421207B2 (CMG Pharmaceutical Co., Ltd., priority 2022, dated 2025)
